Experiments:
EV-A71 3C^pro = EV-A71 3C^pro (Human enterovirus 71, UniProt Q66478); assay: FRET assay, inhibition of enterovirus A71 3C protease; type: biochemical
Experimental: (§1) We had previously shown that enterovirus 3C proteases have a substrate-binding site featuring some similarities with coronavirus main proteases, although their S2 subsite tends to be more open. Leucine is the ideal P2-amino-acid residue in M^pro substrates, whereas most 3C^pros favor Phe in this position.
(§2) Assay samples contained 59 µL of reaction buffer (20 mM HEPES, 120 mM NaCl, 0.4 mM EDTA, 20% glycerol, 4 mM DTT (freshly added before the measurements), pH 7.0, 10 µL enzyme solution (final concentration of Coxsackievirus B3 3C^pro or enterovirus A71 3C^pro: 1.0 µM).
(§3) All reactions were monitored at 37 °C for 15 min. Measurements of enzymatic activity were performed in triplicate and the value was presented as mean ± standard deviation (SD). The initial velocity of the enzymatic reaction with compounds was calculated by linear regression for the first minute of the progression curve. […] V0 is the velocity obtained for the DMSO control (inhibitor concentration of 0 µM).
(§4) […] of inhibitors (dose-response-inhibition). The IC50 values were calculated by non-linear regression (Curve fit: Y: Bottom + (Top-Bottom)/(1 + 10^ ((X-lg IC50))) using GraphPad Prism 9.0.

HCoV-NL63 M^pro = HCoV-NL63 M^pro (Human coronavirus NL63, UniProt P0C6X5); assay: biochemical
Sequence of HCoV-NL63 M^pro (P0C6X5 2940-3242): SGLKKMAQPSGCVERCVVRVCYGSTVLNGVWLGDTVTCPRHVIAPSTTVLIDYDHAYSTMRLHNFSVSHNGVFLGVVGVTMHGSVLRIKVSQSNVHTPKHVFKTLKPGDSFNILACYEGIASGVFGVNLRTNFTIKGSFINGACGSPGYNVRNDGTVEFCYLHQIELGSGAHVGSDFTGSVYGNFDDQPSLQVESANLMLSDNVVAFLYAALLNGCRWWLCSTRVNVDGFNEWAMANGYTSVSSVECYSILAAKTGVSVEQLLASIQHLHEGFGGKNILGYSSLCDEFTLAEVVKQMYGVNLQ

CVB3 3C^pro = CVB3 3C^pro (Coxsackievirus B3, UniProt P03313); assay: FRET assay, inhibition of Coxsackievirus B3 3C protease; type: biochemical
Sequence of CVB3 3C^pro (P03313 1541-1723): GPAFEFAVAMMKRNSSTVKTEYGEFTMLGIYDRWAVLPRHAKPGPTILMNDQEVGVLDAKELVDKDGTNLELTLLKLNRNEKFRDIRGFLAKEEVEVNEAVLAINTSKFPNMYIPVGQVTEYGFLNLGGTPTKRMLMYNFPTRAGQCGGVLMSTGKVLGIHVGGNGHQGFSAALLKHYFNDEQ
Experimental: as §1, §2, §3, §4

SARS-CoV-2 M^pro = SARS-CoV-2 M^pro (Severe acute respiratory syndrome coronavirus 2, UniProt P0DTD1); assay: FRET assay, inhibition of recombinant SARS-CoV-2 Mpro (optimized conditions); type: biochemical; details: FRET substrate Dabcyl-KTSAVLQ↓SGFRKM-E(Edans)-NH2, 50 nM enzyme, pH 7.0, 37 °C, 10 min preincubation
SARS-CoV M^pro = SARS-CoV M^pro (Severe acute respiratory syndrome coronavirus, UniProt P0C6X7); type: biochemical
[1] = inhibitor concentration not given, data not shown

Sequence of EV-A71 3C^pro (Q66478 1549-1731): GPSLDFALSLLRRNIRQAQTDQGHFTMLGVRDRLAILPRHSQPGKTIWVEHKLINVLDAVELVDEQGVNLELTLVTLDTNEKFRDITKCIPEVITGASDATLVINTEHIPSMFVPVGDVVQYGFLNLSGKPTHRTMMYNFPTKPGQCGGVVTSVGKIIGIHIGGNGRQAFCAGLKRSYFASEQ

In the case of `CC(C)(C)NC(=O)NC(C(=O)N1CC2C(C1C(=O)NC(CC1CCNC1=O)C(=O)C(N)=O)C2(C)C)C(C)(C)C` [MG-78, (1R,2S,5S)-N-((S)-4-Amino-3,4-dioxo-1-((S)-2-oxopyrrolidin-3-yl)butan2-yl)-3-((S)-2-(3-tert-butylureido)-3,3-dimethylbutanoyl)-6,6-dimethyl-3-azabicylo[3.1.0]hexane-2-carboxamide], the IC50 (EV-A71 3C^pro; 10 µM FRET substrate Dabcyl-KEALFQ↓GPPQFE(-Edans)-NH2, 1.0 µM enzyme, 37 °C, read-out: IC50 against EV-A71 3C^pro) is reported as 6700 nM, the “Factor by which IC50 versus HCoV-NL63 M^pro is larger than that for SARS-CoV-2 M^pro” value (HCoV-NL63 M^pro) is reported as 25 and the IC50 (HCoV-NL63 M^pro) is reported as 330 nM. For the same molecule, the IC50 (CVB3 3C^pro; 10 µM FRET substrate Dabcyl-KEALFQ↓GPPQFE(-Edans)-NH2, 1.0 µM enzyme, 37 °C, read-out: IC50 against CVB3 3C^pro) was 1450 nM.

With `CNC(=O)C(=O)[C@H](C[C@@H]1CCNC1=O)NC(=O)[C@@H]1[C@@H]2[C@H](CN1C(=O)[C@@H](NC(=O)NC(C)(C)C)C(C)(C)C)C2(C)C` [MG-131, (1R,2S,5S)-3-((S)-2-(3-tert-Butylureido)-3,3-dimethylbutanoyl) -6,6-dimethyl-N-((S)-4-(methylamino)-3,4-dioxo-1-((S)-2-oxopyrrolidin-3-yl)butan-2-yl)-3-azabicyclo[3.1.0]hexane-2-carboxamide] the IC50 (SARS-CoV-2 M^pro) was 14 ± 3 nM.

With `CC1(C)C2CN(C(=O)C=Cc3ccccc3)C(C(=O)NC(CC3CCNC3=O)C(=O)C(=O)NCc3ccccc3)C21` (centres unmarked) [XDL2a] the “Activity in SARS-CoV M^pro assay” value (SARS-CoV M^pro) was “completely inactive”.

In the case of `CC(C)(C)[C@H](NC(=O)C(F)(F)F)C(=O)N1C[C@H]2[C@@H]([C@H]1C(=O)N[C@H](C#N)C[C@@H]1CCNC1=O)C2(C)C` [nirmatrelvir, reference compound], the “Inhibition rate against the 3C protease of EV-A71” value (EV-A71 3C^pro; [1]) is reported as 33% and the “Inhibition rate against the 3C protease of CVB3” value (CVB3 3C^pro; [1]) is reported as 55%.

Source: article PMC9268446 (Molecules, 2022)
